As usually defined, the EC50 is the concentration giving half of the maximal effect. Usually AC50 stands for the concentration giving half of the maximal activity seen. One may read the CC50 as the concentration giving 50% cytotoxicity.

3 compounds from ChEMBL document CHEMBL1201862, “PubChem BioAssay data set” (2004) can be followed below.

The source made the active and inactive calls.

The subject of one experiment is Streptococcus. Description: Group A Streptococcus viability loss, dose response, counter-screen for streptokinase expression inhibitor project, luminescence, BacTiterGlo (AID 1915).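 Also: potency for reduction of bacterial viability or growth.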 The class given is functional, organism-based. On the technique in general: Counterscreens check selectivity or assay interference.
In experiment [1] the test system is BJ. Description: cytotoxicity toward BJ-TERT-LT-ST fibroblasts, dose response, cell-based, RAS-independent, luminescence (AID 1935).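 Also: BJ fibroblasts immortalized with TERT plus LT and ST oncogenes.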 The conditions noted are these: Homo sapiens. The class given is functional.
Experiment [2] is described as follows: cytotoxicity toward NIH3T3 fibroblasts, dose response, counter-screen, cell-based, ATP luminescence, mouse fibroblasts (AID 2010).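 Also: cells exposed to compound for about 90 hours before reading.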 The class given is functional.
Another experiment deals with Beta-galactosidase (Escherichia coli, UniProt Q8VNN2). Description: PubChem AID 485352. In kind it is functional.
Sequence of Beta-galactosidase (Q8VNN2 whole entry): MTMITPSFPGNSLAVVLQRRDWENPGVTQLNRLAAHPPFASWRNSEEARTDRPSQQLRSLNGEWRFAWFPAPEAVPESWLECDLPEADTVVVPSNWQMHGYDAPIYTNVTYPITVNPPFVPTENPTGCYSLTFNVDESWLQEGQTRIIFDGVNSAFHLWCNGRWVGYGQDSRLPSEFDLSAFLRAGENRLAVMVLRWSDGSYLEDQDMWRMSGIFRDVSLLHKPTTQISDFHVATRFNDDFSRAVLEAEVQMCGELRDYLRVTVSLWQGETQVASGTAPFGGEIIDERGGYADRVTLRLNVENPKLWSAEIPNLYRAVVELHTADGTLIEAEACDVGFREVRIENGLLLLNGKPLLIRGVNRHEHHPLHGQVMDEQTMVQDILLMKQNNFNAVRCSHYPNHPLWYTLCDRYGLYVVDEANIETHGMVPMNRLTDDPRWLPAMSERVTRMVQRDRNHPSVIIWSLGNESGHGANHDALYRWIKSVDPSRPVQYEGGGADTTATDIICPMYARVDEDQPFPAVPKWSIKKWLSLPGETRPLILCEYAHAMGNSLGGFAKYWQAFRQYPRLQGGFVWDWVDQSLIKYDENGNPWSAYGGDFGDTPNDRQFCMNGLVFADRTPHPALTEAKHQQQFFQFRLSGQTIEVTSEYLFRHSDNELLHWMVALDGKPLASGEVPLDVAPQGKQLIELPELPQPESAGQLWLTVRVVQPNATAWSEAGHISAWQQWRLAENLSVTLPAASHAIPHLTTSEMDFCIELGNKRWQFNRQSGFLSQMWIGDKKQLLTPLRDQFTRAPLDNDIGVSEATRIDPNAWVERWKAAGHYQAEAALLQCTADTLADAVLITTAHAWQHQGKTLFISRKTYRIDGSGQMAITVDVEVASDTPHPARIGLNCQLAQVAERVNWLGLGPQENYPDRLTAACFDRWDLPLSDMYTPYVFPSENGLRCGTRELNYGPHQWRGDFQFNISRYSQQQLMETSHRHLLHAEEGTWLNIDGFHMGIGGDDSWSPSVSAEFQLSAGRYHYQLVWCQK
Experiment [3] can be described thus: cytotoxicity toward DRD oncogenic fibroblasts, dose response, cell-based, non-viral oncogenic, luminescence (AID 1934). The class given is functional. To be noted: Homo sapiens.
Experiment [4] can be described thus: Artemis endonuclease inhibitor potency, dose response, biochemical, fluorescence intensity (AID 720701).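 Also: Artemis endonuclease enzyme.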 The class given is functional.
For experiment [5], the system named is BJ. Description: cells. In kind it is functional, cell-based. To be noted: Homo sapiens.
A short description of experiment [6]: inhibitors of intracellular T. cruzi replication, confirmation, NIH3T3 host cells, beta-gal luminescence (AID 2044).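 Also: intracellular parasites grown in NIH/3T3 mouse fibroblasts as host cells; luminescent beta-galactosidase reporter signal from transgenic T. cruzi replicating inside host cells; inhibitors lower the luminescence signal.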 The class given is functional, cell-based.
The next experiment has as its target T1, Protein RecA (Mycobacterium tuberculosis, UniProt P9WHJ3).
T1 sequence (P9WHJ3 whole entry): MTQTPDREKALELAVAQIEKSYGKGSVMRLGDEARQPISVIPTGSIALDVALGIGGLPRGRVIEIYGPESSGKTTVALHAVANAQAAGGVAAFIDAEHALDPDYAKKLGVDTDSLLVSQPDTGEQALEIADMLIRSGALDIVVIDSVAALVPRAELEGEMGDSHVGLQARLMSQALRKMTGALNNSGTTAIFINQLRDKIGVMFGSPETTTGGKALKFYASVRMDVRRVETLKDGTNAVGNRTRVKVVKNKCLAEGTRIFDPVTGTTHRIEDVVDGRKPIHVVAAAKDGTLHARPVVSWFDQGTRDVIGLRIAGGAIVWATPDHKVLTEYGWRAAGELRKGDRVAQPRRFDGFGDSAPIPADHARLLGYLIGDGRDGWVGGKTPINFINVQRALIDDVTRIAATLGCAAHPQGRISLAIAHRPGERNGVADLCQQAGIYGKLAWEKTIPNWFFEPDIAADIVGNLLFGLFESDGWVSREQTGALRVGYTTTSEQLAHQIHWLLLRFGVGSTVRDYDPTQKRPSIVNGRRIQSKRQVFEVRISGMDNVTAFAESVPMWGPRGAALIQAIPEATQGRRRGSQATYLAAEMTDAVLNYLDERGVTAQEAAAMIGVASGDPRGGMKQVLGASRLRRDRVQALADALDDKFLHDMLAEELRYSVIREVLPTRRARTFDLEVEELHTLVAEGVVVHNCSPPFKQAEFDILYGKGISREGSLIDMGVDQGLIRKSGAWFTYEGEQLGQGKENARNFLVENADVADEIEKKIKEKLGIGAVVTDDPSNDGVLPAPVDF
Description: Fluorescence Cell-Free Homogeneous Dose Retest to Identify Inhibitors of RecA-Intein Splicing Activity. [Related pubchem assays (depositor defined):AID2097, AID2223, AID489010, AID492950]. In kind it is functional.

The subject of experiment [7] is Streptococcus sp. 'group A'. Description: growth inhibition of control SK(-) GAS strain, dose response, counter-screen for streptokinase expression inhibitor project, luminescence, kanamycin, BacTiterGlo, confirmation (AID 1900). In kind it is functional, organism-based.
In the next experiment the test system is INS1. Description: beta cell apoptosis inhibitors, cytokine rescue, dose response, luminescence, retest (AID 449756).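 Also: cell death triggered by IL-1 beta plus TNF-alpha plus IFN-gamma mixture; protective hits raise ATP signal compared with cytokine alone wells.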 In kind it is functional, cell-based. The conditions noted are these: Rattus norvegicus, INS1.
Experiment [8] has as its target T2, Replicative DNA helicase DnaB (Mycobacterium tuberculosis, UniProt P9WMR3).
T2 sequence (P9WMR3 whole entry): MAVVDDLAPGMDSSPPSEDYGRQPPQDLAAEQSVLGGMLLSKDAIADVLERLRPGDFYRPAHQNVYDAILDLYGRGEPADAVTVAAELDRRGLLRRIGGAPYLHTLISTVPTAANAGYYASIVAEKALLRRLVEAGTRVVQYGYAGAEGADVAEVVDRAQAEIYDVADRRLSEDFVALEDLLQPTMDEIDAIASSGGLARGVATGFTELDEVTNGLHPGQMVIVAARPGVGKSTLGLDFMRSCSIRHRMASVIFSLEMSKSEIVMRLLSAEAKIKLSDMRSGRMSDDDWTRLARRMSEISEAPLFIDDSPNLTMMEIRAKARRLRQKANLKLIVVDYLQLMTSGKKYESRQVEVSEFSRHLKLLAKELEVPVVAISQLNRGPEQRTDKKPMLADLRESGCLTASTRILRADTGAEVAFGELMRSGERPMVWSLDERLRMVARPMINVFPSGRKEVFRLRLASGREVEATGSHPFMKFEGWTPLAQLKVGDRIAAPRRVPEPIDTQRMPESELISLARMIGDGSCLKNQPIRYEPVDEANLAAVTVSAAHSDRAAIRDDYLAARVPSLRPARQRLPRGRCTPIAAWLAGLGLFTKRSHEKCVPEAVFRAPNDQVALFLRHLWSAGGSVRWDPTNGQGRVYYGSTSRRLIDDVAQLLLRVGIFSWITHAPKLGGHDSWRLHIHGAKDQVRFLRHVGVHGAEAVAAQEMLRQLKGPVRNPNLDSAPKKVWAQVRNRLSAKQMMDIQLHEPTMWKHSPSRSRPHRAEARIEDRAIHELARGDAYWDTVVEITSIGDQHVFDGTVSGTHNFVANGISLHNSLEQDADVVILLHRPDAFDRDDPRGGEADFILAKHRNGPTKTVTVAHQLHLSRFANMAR
Description: DnaB intein splicing inhibitors, dose response, biochemical, cell-free fluorescence (AID 449749). In kind it is functional.

The target in a further experiment is Nonstructural protein 1 (Influenza A virus, UniProt Q194T2). In kind it is functional, Influenza A virus (A/California/07/2009(H1N1)).
Sequence of Nonstructural protein 1 (Q194T2 whole entry): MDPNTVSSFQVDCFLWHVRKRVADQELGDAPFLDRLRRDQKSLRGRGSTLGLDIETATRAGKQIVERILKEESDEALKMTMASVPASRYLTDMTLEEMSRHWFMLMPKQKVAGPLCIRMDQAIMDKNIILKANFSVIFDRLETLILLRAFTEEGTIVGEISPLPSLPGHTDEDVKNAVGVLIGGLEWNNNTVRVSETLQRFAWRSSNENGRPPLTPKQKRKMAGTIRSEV
In experiment [9] the target is T3, Type-1 angiotensin II receptor (Homo sapiens, UniProt P30556).
T3 sequence (P30556 whole entry): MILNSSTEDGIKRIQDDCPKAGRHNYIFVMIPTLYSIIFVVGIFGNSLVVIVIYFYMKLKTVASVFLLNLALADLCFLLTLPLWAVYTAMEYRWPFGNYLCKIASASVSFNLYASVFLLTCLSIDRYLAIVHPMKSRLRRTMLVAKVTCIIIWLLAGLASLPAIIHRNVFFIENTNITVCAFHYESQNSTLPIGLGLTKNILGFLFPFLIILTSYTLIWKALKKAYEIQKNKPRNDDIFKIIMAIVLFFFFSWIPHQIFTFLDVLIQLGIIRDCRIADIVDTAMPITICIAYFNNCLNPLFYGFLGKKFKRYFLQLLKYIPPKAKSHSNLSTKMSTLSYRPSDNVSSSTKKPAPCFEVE
In words: AT1 receptor antagonists, dose response, selectivity assay for APJ receptor antagonist project, cell-based, uHTS hits (AID 463214).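 Also: antagonist potency against angiotensin II stimulated AT1 response.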 The class given is functional.

For experiment [10], the system named is BJ. Description: cytotoxicity toward BJ-TERT fibroblasts, dose response, cell-based, RAS-independent, luminescence (AID 1933). To be noted: Homo sapiens. The class given is functional.
The target in another experiment is Kallikrein-7 (Homo sapiens, UniProt P49862). Description: Fluorescence Intensity-based biochemical primary high throughput dose response assay to identify activators of kallikrein-7 (K7) zymogen.
Sequence of Kallikrein-7 (P49862 whole entry): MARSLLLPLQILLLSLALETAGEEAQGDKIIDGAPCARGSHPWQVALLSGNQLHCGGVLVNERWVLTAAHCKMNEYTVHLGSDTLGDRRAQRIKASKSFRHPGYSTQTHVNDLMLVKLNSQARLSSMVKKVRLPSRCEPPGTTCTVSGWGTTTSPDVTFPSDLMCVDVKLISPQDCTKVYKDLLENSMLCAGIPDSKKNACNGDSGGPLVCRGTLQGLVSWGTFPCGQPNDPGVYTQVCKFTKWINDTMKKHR
A short description of experiment [11]: HeLa cell cytotoxicity, dose response, cytotoxicity control for MgcRacGAP inhibitor project (AID 624300). In kind it is functional.
Experiment [12] has as its target Glutathione-S-transferase (Schistosoma japonicum, UniProt Q26513). In words: biotin-GST/anti-GST TR-FRET signal inhibitors, dose response, artefact control for Vif-APOBEC3G degradation inhibitor project, biochemical (AID 1117362). The class given is functional. In general terms: TR-FRET usually uses a lanthanide donor and a delayed reading to cut background.
Experiment [13] has as its target Glucose-6-phosphate 1-dehydrogenase (Homo sapiens, UniProt P11413). Description: human G6PD enzyme inhibitors, dose response, selectivity assay for P. falciparum G6PD inhibitor project, biochemical, fluorescence (AID 504792). The class given is functional.
The target in experiment [14] is T4, Small ubiquitin-related modifier 1 (Homo sapiens, UniProt P63165). Description: inhibitors of SUMO1 peptide binding, dose response, biochemical, fluorescence polarization, uHTS hits (AID 624382). In kind it is functional. The conditions noted are these: read-out: IC50_Mean. (Polarisation of emitted light reports the rotation of a fluorescent probe.)
T4 sequence (P63165 whole entry): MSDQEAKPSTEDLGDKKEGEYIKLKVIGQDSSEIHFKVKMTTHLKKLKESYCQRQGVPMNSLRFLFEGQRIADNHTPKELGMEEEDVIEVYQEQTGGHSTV
In experiment [15] the target is T5, DNA repair protein RAD52 homolog (Homo sapiens, UniProt P43351).
T5 sequence (P43351 whole entry): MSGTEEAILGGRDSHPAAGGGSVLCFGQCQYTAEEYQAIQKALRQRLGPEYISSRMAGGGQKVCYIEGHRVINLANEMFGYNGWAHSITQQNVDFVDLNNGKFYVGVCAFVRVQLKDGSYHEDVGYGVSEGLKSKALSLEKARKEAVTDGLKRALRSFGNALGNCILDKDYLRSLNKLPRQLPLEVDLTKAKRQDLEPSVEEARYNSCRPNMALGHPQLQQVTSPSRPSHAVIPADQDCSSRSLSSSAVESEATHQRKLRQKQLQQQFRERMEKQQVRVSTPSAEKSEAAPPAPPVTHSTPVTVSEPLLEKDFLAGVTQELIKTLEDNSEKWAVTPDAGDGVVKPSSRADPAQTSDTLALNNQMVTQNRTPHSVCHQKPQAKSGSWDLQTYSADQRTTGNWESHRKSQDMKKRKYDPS
In kind it is functional, biochemical.

The target of experiment [16] is T6, Rac GTPase-activating protein 1 (Homo sapiens, UniProt Q9H0H5).
T6 sequence (Q9H0H5 whole entry): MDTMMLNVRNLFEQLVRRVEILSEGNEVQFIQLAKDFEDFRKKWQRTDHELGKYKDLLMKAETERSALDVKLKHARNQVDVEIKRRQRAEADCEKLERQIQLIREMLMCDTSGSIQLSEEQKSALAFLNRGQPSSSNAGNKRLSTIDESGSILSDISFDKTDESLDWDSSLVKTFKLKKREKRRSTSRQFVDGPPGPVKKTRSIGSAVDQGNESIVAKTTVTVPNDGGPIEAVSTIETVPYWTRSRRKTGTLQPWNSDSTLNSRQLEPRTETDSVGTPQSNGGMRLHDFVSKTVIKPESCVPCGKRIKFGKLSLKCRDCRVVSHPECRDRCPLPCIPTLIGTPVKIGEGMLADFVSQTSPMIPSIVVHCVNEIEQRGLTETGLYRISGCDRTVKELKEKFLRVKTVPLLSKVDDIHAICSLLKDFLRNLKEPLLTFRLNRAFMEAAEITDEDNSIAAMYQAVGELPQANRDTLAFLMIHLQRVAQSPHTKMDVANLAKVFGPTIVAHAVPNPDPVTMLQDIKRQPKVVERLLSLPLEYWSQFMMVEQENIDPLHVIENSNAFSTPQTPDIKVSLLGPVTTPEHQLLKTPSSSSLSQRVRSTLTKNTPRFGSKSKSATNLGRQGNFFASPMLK
Description: MgcRacGAP GTPase-activating activity inhibitors, confirmation, biochemical, ADP Hunter fluorescence, primary and confirmatory (AID 624330). In kind it is functional.

The nature of experiment [17]: THP-1 cell cytotoxicity, dose response, cytotoxicity control for Vif-APOBEC3G degradation inhibitor project, THP-1 cells (AID 1117359). In kind it is functional. The conditions noted are these: Human immunodeficiency virus 1, THP-1.
The target in experiment [18] is T4, Small ubiquitin-related modifier 1. Description: inhibitors of SUMO1 partner interactions, dose response, biochemical, FRET (AID 624383). In kind it is functional. The conditions noted are these: read-out: IC50_Mean.

Sequence of Glucose-6-phosphate 1-dehydrogenase (P11413 whole entry): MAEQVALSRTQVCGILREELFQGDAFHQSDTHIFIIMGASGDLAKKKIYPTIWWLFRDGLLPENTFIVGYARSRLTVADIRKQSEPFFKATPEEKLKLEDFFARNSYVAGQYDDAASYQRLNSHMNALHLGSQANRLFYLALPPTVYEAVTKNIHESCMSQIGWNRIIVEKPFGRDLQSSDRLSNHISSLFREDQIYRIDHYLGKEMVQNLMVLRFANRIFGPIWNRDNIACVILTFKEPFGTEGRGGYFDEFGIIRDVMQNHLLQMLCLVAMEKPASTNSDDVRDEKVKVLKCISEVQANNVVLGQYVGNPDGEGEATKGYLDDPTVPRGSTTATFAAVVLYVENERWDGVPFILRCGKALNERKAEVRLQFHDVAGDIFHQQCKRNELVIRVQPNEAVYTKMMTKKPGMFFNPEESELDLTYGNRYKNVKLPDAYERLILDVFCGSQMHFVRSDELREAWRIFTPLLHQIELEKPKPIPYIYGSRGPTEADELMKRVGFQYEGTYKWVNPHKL
Sequence of Glutathione-S-transferase (Q26513 whole entry): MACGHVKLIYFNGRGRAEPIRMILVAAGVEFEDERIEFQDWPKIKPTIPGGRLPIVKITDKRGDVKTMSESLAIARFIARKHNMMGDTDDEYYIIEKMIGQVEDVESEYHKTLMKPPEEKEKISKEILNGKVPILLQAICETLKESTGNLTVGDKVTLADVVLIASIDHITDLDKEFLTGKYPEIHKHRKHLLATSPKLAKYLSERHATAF

As to `c1ccc(-c2nc(N3CCCCCC3)c3ccccc3n2)nc1`, the EC50 with Streptococcus was 1.19 µM (active); with BJ [1], 50.7 µM (inconclusive); in experiment [2] it was 2.24 µM (active); on Beta-galactosidase, > 40 µM (inactive); in [3], 21 µM (active); in the experiment on BJ [5], 25.7 µM (active). For the same compound, the EC50 was 0.845 µM (active) in experiment [6], > 380 µM (inconclusive) at Protein RecA, 0.947 µM (active) in experiment [7] and 9.59 µM (active) with BJ [10]. The IC50 in experiment [4] was 4.71 µM (active); on Nonstructural protein 1 it was 23 µM (active); in [9], > 40 µM (not active). For the same compound, the values for the AC50 (in the experiment on INS1; in [8]) were 1.8 µM (active) and 36.2 µM (active), respectively.
`COc1ccc2oc(=O)c(C(=O)N3CCN(C(=O)c4ccccc4)CC3)cc2c1`: on Kallikrein-7, the EC50 is > 69.5 µM (inactive).
For `Cc1cc(C)c2c(=N)c3ccccc3n(CCCCCCCCn3c4ccccc4c(=N)c4c(C)cc(C)nc43)c2n1`, the values for the CC50 in experiment [11] and in [17] were 20.4 µM (active) and 5.65 µM (active), respectively. Also, the IC50 in experiment [12] was 2.4 µM (active); in experiment [13], 29 µM (inactive); in [14], > 66.6 µM (inactive); in experiment [16], 26.3 µM (active); in experiment [18], 4.83 µM (active). The AC50 in [15] was < 0.364 µM (active).
